Source: the OligoGym collection
After the bases stand the sugars from the 5' end (letter, count) and the backbone: PS all phosphorothioate, else s phosphorothioate and o phosphodiester by linkage. Methylation of C is not given here. e = 2'-O-(2-methoxyethyl) (MOE); k = constrained ethyl (cEt); d = 2'-deoxy (DNA); m = 2'-O-methyl

Molecular target: HSD17B13
Conditions: ASO, HepaRG

Row | Sequence | target mRNA inhibition (1 µM) | further results
1 | CAAGACATTCTAGCCT (sugars k3 d10 k3, PS) | 58% | –
2 | CAAGACTTAAACACCA (sugars k3 d10 k3, PS) | 55% | –
3 | CAAGAGGATAGTCCAT (sugars k3 d1 m1 d8 k3, PS) | 60% | –
4 | CAAGTAAGGTAAAGTC (sugars k3 d10 k3, PS) | 33% | –
5 | CAATAATAATGGGCAG (sugars k3 d10 k3, PS) | 43% | –
6 | CAATACAGGCCATAAT (sugars k3 d10 k3, PS) | 0% | –
7 | CAATTCACATATGTGA (sugars k3 d10 k3, PS) | 11% | –
8 | CACATACGCATGCGCA (sugars k3 d10 k3, PS) | 59% | –
9 | CACCAATGCAGTTTGT (sugars k3 d10 k3, PS) | 42% | –
10 | CACCATGAAGGACTCC (sugars k3 d10 k3, PS) | 48% | –
11 | CACCATGACAGCTTCA (sugars k3 d10 k3, PS) | 65% | –
12 | CACCGTTTTGGGCTAA (sugars kkdddddddddkekek, PS) | 42% | –
13 | CACCTTTCATAATGTA (sugars k3 d10 k3, PS) | 59% | –
14 | CAGAACCAATATGCTC (sugars k3 d10 k3, PS) | 56% | –
15 | CAGAATATATACTAGG (sugars k3 d10 k3, PS) | 55% | –
16 | CAGAGACATGAGGTTT (sugars k3 d1 m1 d8 k3, PS) | 61% | –
17 | CAGCTATAGGTAGCTA (sugars k3 d10 k3, PS) | 0% | –
18 | CAGGAAGACAGGTAAT (sugars k3 d10 k3, PS) | 60% | –
19 | CAGGGTGGTAACGGTG (sugars k3 d1 m1 d8 k3, PS) | 29% | –
20 | CAGGGTGGTAACGGTG (sugars k3 d10 k3, PS) | 55% | –
21 | CAGGTAATTAATCTTG (sugars k3 d10 k3, PS) | 54% | –
22 | CAGGTTGAGATAAAGC (sugars k3 d9 k3 e1, PS) | 63% | –
23 | CAGGTTGAGATAAAGC (sugars k3 d10 k3, PS) | 49% | –
24 | CAGTAAAATTATGCCT (sugars k3 d10 k3, PS) | 38% | –

Row | Sequence | target mRNA inhibition (1 µM) | further results
25 | CAGTAGGTGTGTTTCA (sugars k3 d10 k3, PS) | 47% | –
26 | CAGTATCCCCTCAAAT (sugars k3 d10 k3, PS) | 53% | –
27 | CAGTUTTCCTCATGAT (sugars k3 d1 m1 d8 k3, PS) | 0% | –
28 | CATAACCATAGGACAT (sugars k3 d10 k3, PS) | 41% | –
29 | CATAAGAGATGAGTAG (sugars k3 d10 k3, PS) | 44% | –
30 | CATAATAATAGCTCTA (sugars k3 d9 k3 e1, PS) | 55% | –
31 | CATACGCATGCGCAGT (sugars k3 d10 k3, PS) | 60% | –
32 | CATAGACATGTGTTCA (sugars k3 d10 k3, PS) | 52% | –
33 | CATAGCTAACTCAGGC (sugars k3 d10 k3, PS) | 29% | –
34 | CATAGGCTTAGTGTAG (sugars k3 d10 k3, PS) | 38% | –
35 | CATATCATTATCATGC (sugars k3 d10 k3, PS) | 66% | –
36 | CATCATCGATGGAAGA (sugars k3 d10 k3, PS) | 14% | –
37 | CATCTATCAGACTTCT (sugars k3 d10 k3, PS) | 38% | –
38 | CATCTCTGGGACCAAG (sugars k3 d9 k3 e1, PS) | 42% | –
39 | CATCTGTCTCCAATAC (sugars k3 d10 k3, PS) | 32% | –
40 | CATCTTAAGATACCCA (sugars kkdddddddddkekek, PS) | 59% | –
41 | CATGGCTACAGATTGG (sugars k3 d10 k3, PS) | 54% | –
42 | CATTAGATGGTAAGGA (sugars k3 d10 k3, PS) | 32% | –
43 | CATTTAGCAGCTTGGA (sugars k3 d10 k3, PS) | 88% | target mRNA inhibition (0.02 µM): 0%; target mRNA inhibition (0.078 µM): 0%; target mRNA inhibition (0.313 µM): 54%; target mRNA inhibition (1.25 µM): 75%; target mRNA inhibition (5 µM): 86%
44 | CCAAACTTGCCCATAA (sugars k3 d10 k3, PS) | 45% | –
45 | CCAACCAAACTTCCAG (sugars kkdddddddddkekek, PS) | 15% | –
46 | CCAATATATACTGACA (sugars k3 d10 k3, PS) | 68% | –
47 | CCAATATGCTCTGTCG (sugars k3 d10 k3, PS) | 65% | –
48 | CCACAGAACCAATATG (sugars k3 d10 k3, PS) | 49% | –

Row | Sequence | target mRNA inhibition (1 µM) | further results
49 | CCACTATCAGAACAGT (sugars k3 d10 k3, PS) | 31% | –
50 | CCACTGTGACGATGTG (sugars k3 d10 k3, PS) | 0% | –
51 | CCAGAGCATTCATCAG (sugars k3 d10 k3, PS) | 83% | target mRNA inhibition (0.02 µM): 0%; target mRNA inhibition (0.078 µM): 13%; target mRNA inhibition (0.313 µM): 41%; target mRNA inhibition (1.25 µM): 71%; target mRNA inhibition (5 µM): 79%
52 | CCAGATTGCACAAACC (sugars k3 d10 k3, PS) | 72% | target mRNA inhibition (0.02 µM): 0%; target mRNA inhibition (0.078 µM): 17%; target mRNA inhibition (0.313 µM): 51%; target mRNA inhibition (1.25 µM): 78%; target mRNA inhibition (5 µM): 92%
53 | CCAGGTTGAGATAAAG (sugars k3 d10 k3, PS) | 49% | –
54 | CCAGTAAAAAATTGGT (sugars k3 d10 k3, PS) | 23% | –
55 | CCAGTACAGTTCCTTT (sugars kkdddddddddkekek, PS) | 75% | target mRNA inhibition (0.02 µM): 29%; target mRNA inhibition (0.078 µM): 21%; target mRNA inhibition (0.313 µM): 44%; target mRNA inhibition (1.25 µM): 61%; target mRNA inhibition (5 µM): 90%
56 | CCATCTATCAGACTTC (sugars k3 d9 k3 e1, PS) | 60% | –
57 | CCATTATCCTTACTCC (sugars k3 d10 k3, PS) | 27% | –
58 | CCCAAACATGGATGTT (sugars k3 d10 k3, PS) | 72% | –
59 | CCCAACCAAACTTCCA (sugars k3 d10 k3, PS) | 62% | –
60 | CCCAACGCAACAGTTT (sugars k3 d10 k3, PS) | 66% | target mRNA inhibition (0.02 µM): 4%; target mRNA inhibition (0.078 µM): 26%; target mRNA inhibition (0.313 µM): 54%; target mRNA inhibition (1.25 µM): 78%; target mRNA inhibition (5 µM): 92%
61 | CCCAAGAGTGGCAGGA (sugars k3 d10 k3, PS) | 29% | –
62 | CCCATAACCATAGGAC (sugars k3 d10 k3, PS) | 47% | –
63 | CCCGAATTATTTCTTG (sugars k3 d10 k3, PS) | 34% | –
64 | CCCTAATGTGTTTTCC (sugars k3 d10 k3, PS) | 25% | –
65 | CCGCGCTTATTAATAT (sugars k3 d10 k3, PS) | 21% | –
66 | CCGTTTTGGGCTAATG (sugars k3 d9 k3 e1, PS) | 69% | –
67 | CCGTUTTGGGCTAATG (sugars k3 d1 m1 d8 k3, PS) | 51% | –
68 | CCTAAATTCAAAGACC (sugars k3 d10 k3, PS) | 64% | –
69 | CCTAAGTTATTATCCC (sugars k3 d10 k3, PS) | 18% | –
70 | CCTAATAACTACATGA (sugars k3 d10 k3, PS) | 3% | –
71 | CCTAGTTGCAATGAGA (sugars k3 d10 k3, PS) | 77% | –
72 | CCTAGTTTTCGGCACT (sugars k3 d10 k3, PS) | 62% | –

Row | Sequence | target mRNA inhibition (1 µM) | further results
73 | CCTATATACATCCAAG (sugars k3 d9 k3 e1, PS) | 63% | –
74 | CCTCAAATGTCTTGGT (sugars k3 d10 k3, PS) | 6% | –
75 | CCTCATTTAGCAGCTT (sugars k3 d10 k3, PS) | 81% | target mRNA inhibition (0.02 µM): 14%; target mRNA inhibition (0.078 µM): 34%; target mRNA inhibition (0.313 µM): 54%; target mRNA inhibition (1.25 µM): 78%; target mRNA inhibition (5 µM): 88%
76 | CCTCCACACCGCGCTT (sugars k3 d10 k3, PS) | 16% | –
77 | CCTCGATCCTATATAC (sugars k3 d1 m1 d8 k3, PS) | 9% | –
78 | CCTCTAAGTTAGCCCC (sugars k3 d9 k3 e1, PS) | 16% | –
79 | CCTCTAAGTTAGCCCC (sugars kkdddddddddkekek, PS) | 20% | –
80 | CCTGATTTAGAGAGCG (sugars k3 d10 k3, PS) | 42% | –
81 | CCTGTGTTAGCTTTAA (sugars k3 d9 k3 e1, PS) | 66% | –
82 | CCTTAACAAACCTCCA (sugars k3 d10 k3, PS) | 27% | –
83 | CCTTCATCTAACTAAC (sugars k3 d10 k3, PS) | 30% | –
84 | CCTTCTGGTTCAGTCC (sugars k3 d10 k3, PS) | 72% | target mRNA inhibition (0.02 µM): 9%; target mRNA inhibition (0.078 µM): 20%; target mRNA inhibition (0.313 µM): 39%; target mRNA inhibition (1.25 µM): 68%; target mRNA inhibition (5 µM): 89%
85 | CGACTTCATCTGTCTC (sugars k3 d10 k3, PS) | 19% | –
86 | CGCCTAGTTTTCGGCA (sugars k3 d10 k3, PS) | 23% | –
87 | CGCGAGATGATGTTGC (sugars k3 d10 k3, PS) | 53% | –
88 | CGCGCTTATTAATATC (sugars k3 d10 k3, PS) | 6% | –
89 | CGTAGCAAATGTAAGA (sugars k3 d10 k3, PS) | 0% | –
90 | CGTCAAAAACCGTCAA (sugars k3 d10 k3, PS) | 20% | –
91 | CGTTAGGTTTCCAAAT (sugars k3 d10 k3, PS) | 0% | –
92 | CGTTTACTCACTTCTG (sugars k3 d10 k3, PS) | 21% | –
93 | CGTTTATCATATGCTA (sugars k3 d10 k3, PS) | 88% | target mRNA inhibition (0.02 µM): 9%; target mRNA inhibition (0.078 µM): 29%; target mRNA inhibition (0.313 µM): 57%; target mRNA inhibition (1.25 µM): 77%; target mRNA inhibition (5 µM): 86%
94 | CGTTTGACTGCTGCTA (sugars kkdddddddddkekek, PS) | 48% | –
95 | CGTTTTGGGCTAATGA (sugars kkdddddddddkekek, PS) | 37% | –
96 | CGTTUGACTGCTGCTA (sugars k3 d1 m1 d8 k3, PS) | 54% | –
